Reference: ChEMBL document CHEMBL1126612, “Synthesis and pharmacological evaluation of hexahydrofluorenamines as noncompetitive antagonists at the N-methyl-D-aspartate receptor” (J Med Chem, 1993)

Experiments:
[1] = target: Glutamate NMDA receptor; test: Evaluated for their affinity at the PCP site for displacement of [3H]TCP in rat brain homogenates; assay type: tissue-based
[2] = test system: Mus musculus; test: Compound was evaluated for in vivo activity assessed by prevention of NMDA-induced lethality in mice (N= 10 animals); assay type: functional
[3] = Partition coefficient determined using standard shake flask method at pH 7.4.; assay type: physicochemical; conditions: octanol/water
[4] = species: Rattus norvegicus; test: Compound was evaluated for the inhibition of glutamate-stimulated calcium influx (GSCI); assay type: functional
[5] = target: Glutamate NMDA receptor (Rattus norvegicus) (UniProt P35439+Q00959+Q00960+Q00961+Q62645+Q8VHN2+Q9R1M7); test: (§1) Percent inhibition at the PCP site for displacement of [3H]TCP in rat brain homogenates at […]; assay type: tissue-based
[6] = species: Rattus norvegicus; test: Compound was evaluated for the inhibition of glutamate-stimulated calcium influx (GSCI); (N=1); assay type: functional
[7] = target: Glutamate NMDA receptor; test: as §1; assay type: tissue-based

Row | Structure (SMILES) | IC50 [1] | ED50 [2] | logD [3] | inhibition [5] | also measured
1 | CNC12CCCCC1Cc1ccsc12 (centres undefined) | 66 nM | 1.1 mg/kg |  |  | 
2 | CNC12CCCC1Cc1ccccc12 (centres undefined) | 350 nM |  |  |  | 
3 | CN[C@@]12CCCC[C@@H]1Cc1ccccc12 | 107 nM | 10 mg/kg | 0.43 |  | IC50 [4]: 2550 nM
4 | CNC12CC=CCC1c1ccccc1C2 (centres undefined) |  |  | 0.04 | 0% | 
5 | CNC12c3ccccc3CC1CCCC2C (centres undefined) | 79 nM | 0.8 mg/kg |  |  | IC50 [6]: 390 nM
6 | CNC12CCC(CO)CC1Cc1ccccc12 (centres undefined) | 3940 nM |  | 0.17 |  | 
7 | NC12CCCCC1c1ccccc1C2 (centres undefined) |  |  | 0.3 | 0% | 
8 | c1ccc(C2(N3CCCCC3)CCCCC2)cc1 [PHENCYCLIDINE] | 36.5 nM | 0.55 mg/kg | 3.63 |  | IC50 [4]: 200 nM
9 | C=C1c2ccccc2C2(N)CCCCC12 (centres undefined) |  |  |  | 4% | 
10 | CNC12CCCCC1Cc1ccc(OC)cc12 (centres undefined) | 22 nM | 0.51 mg/kg | 0.65 |  | IC50 [6]: 160 nM
11 | C=C1c2ccccc2C2(NC)CCCCC12 (centres undefined) | 528 nM |  | 0.76 |  | 
12 | CC1CCCC2Cc3ccccc3C12N (centres undefined) | 159 nM |  |  |  | 
13 | CN[C@@]12CC[C@@H](CN)C[C@@H]1Cc1ccccc12 | 1.84 nM |  | -1.42 |  | IC50 [6]: 765000 nM
14 | CNC12CCCCC1Sc1ccccc12 (centres undefined) | 11.3 nM | 0.41 mg/kg |  |  | IC50 [6]: 210 nM
15 | CCN[C@]12CCCC[C@H]1Cc1ccccc12 | 55.2 nM | 0.2 mg/kg |  |  | IC50 [6]: 61 nM
16 | c1ccc(CNC23CCCCC2Cc2ccsc23)cc1 (centres undefined) |  |  |  | 10% | 
17 | CC[C@]1(c2ccccc2)OC[C@H]([C@@H]2CCCCN2)O1 [ETOXADROL] | 107 nM |  |  |  | 
18 | NC12CCC(CO)CC1Cc1ccccc12 (centres undefined) | 253 nM |  | 0.86 |  | 

Row | Structure (SMILES) | IC50 [1] | ED50 [2] | logD [3] | inhibition [5] | also measured
19 | c1ccc(CNC23CCCC2Cc2ccccc23)cc1 (centres undefined) |  |  |  | 4% | 
20 | NCC12CCCCC1c1ccccc1C2 (centres undefined) |  |  |  | 1% | 
21 | N[C@]12CCCC[C@H]1Cc1ccccc12 | 13.4 nM | 0.61 mg/kg |  |  | IC50 [4]: 510 nM
22 | NC12CCCCCC1Cc1ccccc12 (centres undefined) | 304 nM |  |  |  | 
23 | CNC[C@@H]1CC[C@@]2(NC)c3ccccc3C[C@H]2C1 |  |  | -2.65 | 0% | 
24 | CNC12CCCCC1Cc1cc(OC)ccc12 (centres undefined) |  |  | 0.21 | 11% | 
25 | CNC12CCC(C)CC1Cc1ccccc12 (centres undefined) | 95 nM |  |  |  | 
26 | C[C@]12N[C@H](Cc3ccccc31)c1ccccc12 [DIZOCILPINE] |  | 0.22 mg/kg | 2.1 |  | IC50 [4]: 54 nM
27 | CNCC12CCCCC1c1ccccc1C2 (centres undefined) |  |  |  | 0% | 
28 | CN[C@@]12CCCC[C@@H]1Cc1ccccc12.CN[C@]12CCCC[C@H]1Cc1ccccc12 | 30 nM | 0.58 mg/kg | 0.54 |  | IC50 [4]: 100 nM
29 | CCNC12CCCCC1Cc1c(C)cccc12 (centres undefined) | 323 nM |  |  |  | 
30 | CNC12CCCCCC1Cc1ccccc12 (centres undefined) | 113 nM |  | 0.66 |  | IC50 [6]: 1200 nM
31 | CN[C@]12CCCC[C@H]1Cc1ccccc12 | 9.9 nM | 0.1 mg/kg | 0.33 |  | IC50 [4]: 120 nM
32 | CNC12CCCCC1c1ccccc1C2 (centres undefined) |  |  | 0.62 | 0% | 
33 | CCNC12CCCCC1Oc1ccccc12 (centres undefined) | 141 nM | 1.5 mg/kg |  |  | IC50 [6]: 1800 nM
34 | NC12CCCC1Cc1ccccc12 (centres undefined) |  |  | -0.28 |  | IC50 [7]: 5 nM
35 | c1ccc(CNC23CCCCCC2Cc2ccccc23)cc1 (centres undefined) |  |  |  | 6% | 
36 | CNC12CCCCC1Cc1ccc(O)cc12 (centres undefined) | 16.5 nM | 0.99 mg/kg |  |  | IC50 [6]: 140 nM
